Laboratory results as given in paper PMC7339578, “Multiple circulating alkaloids and saponins from intravenous Kang-Ai injection inhibit human cytochrome P450 and UDP-glucuronosyltransferase isozymes: potential drug–drug interactions” (Chinese Medicine, 2020).
Read-outs that look alike come from different tables or passages of the source.

Legend:
P-gp = tested on: P-gp; parameters: method as in PMID 24380838; settings: cited from earlier work; for inhibition of P-gp: in vitro and in vivo
[1] = parameters: method as in PMID 16500065; settings: intravenous infusion of 600 mg oxymatrine, healthy male volunteers; cited from earlier work
CYP3A4 = tested on: CYP3A4; parameters: method as in PMID 26586934; settings: CYP3A4 isozyme; read-out: Km (metabolism to matrine); cited from earlier work
[2] = tested on: SW-620, BGC823, A375 cells; parameters: method as in PMID 31283981; settings: cited from earlier work
[3] = parameters: method as in PMID 26586934; settings: pooled HLM; read-out: Km (metabolism to matrine); cited from earlier work
CYP2A6 = molecular target: T1, CYP2A6 (Homo sapiens, UniProt P11509); experiment: Inhibition of recombinant CYP2A6 (probe coumarin); format: in vitro ADME
T1 sequence (P11509 1-494): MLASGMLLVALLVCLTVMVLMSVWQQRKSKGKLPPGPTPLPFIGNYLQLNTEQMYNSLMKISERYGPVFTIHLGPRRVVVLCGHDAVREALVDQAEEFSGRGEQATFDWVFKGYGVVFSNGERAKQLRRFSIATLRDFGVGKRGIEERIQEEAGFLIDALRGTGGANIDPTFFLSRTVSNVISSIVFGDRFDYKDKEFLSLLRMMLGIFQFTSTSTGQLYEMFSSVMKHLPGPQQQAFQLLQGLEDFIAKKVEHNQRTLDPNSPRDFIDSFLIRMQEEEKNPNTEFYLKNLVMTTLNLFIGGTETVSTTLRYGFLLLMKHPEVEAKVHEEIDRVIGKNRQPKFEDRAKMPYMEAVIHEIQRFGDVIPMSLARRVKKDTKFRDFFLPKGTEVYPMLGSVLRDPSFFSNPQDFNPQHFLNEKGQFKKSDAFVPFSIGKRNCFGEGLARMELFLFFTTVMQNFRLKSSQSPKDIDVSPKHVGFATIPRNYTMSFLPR
Method: (§1) In this study, phenacetin (100 μM), coumarin (100 μM), bupropion (100 μM), paclitaxel (60 μM), tolbutamide (200 μM), mephenytoin (100 μM), chlorzoxazone (200 μM) and nifedipine (40 μM) have been used as the probe substrates for CYP1A2, 2A6, 2B6, 2C8, 2C9, 2C19, 2E1 and 3A4, respectively.

UGT1A1 = molecular target: T2, UGT1A1 (Homo sapiens, UniProt P22309); experiment: Inhibition of expressed UGT1A1 (probe β-estradiol); format: in vitro ADME
T2 sequence (P22309 26-533): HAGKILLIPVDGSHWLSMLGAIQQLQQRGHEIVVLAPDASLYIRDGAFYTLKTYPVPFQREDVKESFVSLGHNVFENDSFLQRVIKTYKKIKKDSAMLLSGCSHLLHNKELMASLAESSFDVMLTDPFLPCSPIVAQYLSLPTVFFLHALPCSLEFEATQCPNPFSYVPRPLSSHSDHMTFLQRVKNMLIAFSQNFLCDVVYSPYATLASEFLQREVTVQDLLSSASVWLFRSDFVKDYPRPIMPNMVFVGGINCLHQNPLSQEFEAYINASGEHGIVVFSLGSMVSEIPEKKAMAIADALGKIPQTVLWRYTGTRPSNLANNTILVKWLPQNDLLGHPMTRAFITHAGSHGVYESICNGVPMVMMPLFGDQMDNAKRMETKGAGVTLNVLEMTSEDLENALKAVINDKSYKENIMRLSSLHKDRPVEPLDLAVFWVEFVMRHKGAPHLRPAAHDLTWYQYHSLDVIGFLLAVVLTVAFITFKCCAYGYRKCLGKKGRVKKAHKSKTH
Method: (§2) After centrifugation (13,800g, 10 min), the supernatant (8 μL) was obtained for determination by UHPLC system.
(§3) Similarly, β-estradiol (60 μM), propofol (40 μM) and 4-MU (350 μM) were typically used as the substrates for UGT1A1, 1A9 and 2B7, respectively. After optimization of incubation conditions (Additional file 1: Fig. S2), the protein concentrations for UGT1A1, 1A9, and 2B7 were 0.125, 0.05, and 0.05 mg/mL, respectively.

[4] = tested on: HepG2, MCF-7, HeLa, A549 cells; parameters: method as in PMID 31283981; settings: cited from earlier work
[5] = parameters: method as in PMID 26586934; settings: HIM; read-out: Km (metabolism to matrine); cited from earlier work
[6] = parameters: method as in earlier work; settings: rat plasma; oxymatrine 30 mg/kg intravenously; cited from earlier work
CYP and UGT enzymes = experiment: Inhibition of the panel of eight CYP and three UGT isozymes (statements over all enzymes); format: in vitro ADME, human; settings: compound 100 μM
Method: as §2, §1, §3

NTCP = tested on: NTCP; parameters: method as in PMID 30978651; settings: cited from earlier work
[7] = recombinant isozyme, mean ± SD of triplicate, unit not given (IC50 classes in μM), read-out: IC50 towards CYP2A6
[8] = recombinant isozyme, mean ± SD of triplicate, unit not given (IC50 classes in μM), read-out: IC50 towards UGT1A1

In the case of O=C1CCC[C@@H]2[C@H]3CCC[N+]4([O-])CCC[C@@H](CN12)[C@@H]34 (stereo partly shown) [Compound A3, Oxymatrine], the “inhibition of P-gp” value (P-gp) is listed as “did not demonstrate the inhibition of P-gp”, the “fraction of oxymatrine reduced to matrine” value [1] is listed as “about 19.9%” and the Km (CYP3A4) is listed as 341 µM. The “effective concentrations to inhibit tumor cell viability” value [2] was 0.10 to 40.00 µmol/L, the Km [3] was 221 µM and the IC50 (CYP2A6) was > 100 µM. For the same compound, the IC50 (UGT1A1; IC50 towards UGT1A1, recombinant isozyme, mean ± SD of triplicate, unit not given (IC50 classes in μM)) was > 100 µM, the “reported effective concentrations (IC50 or EC50 values)” value [4] was 473.48 to 3787.84 µM and the Km [5] was 150 µM. For the same compound, the “AUC0–12h” value [6] was 16234.27 ng·h/mL, the CL [6] was 3.10 L/h and the Cmax [6] was 32847.57 ng/mL. The t1/2 [6] was 34.2 min.

For O=C1CCC[C@@H]2[C@H]3CCCN4CCC[C@@H](CN12)[C@@H]34 [Compound A1, Matrine], the “inhibition of P-gp” value (P-gp) is given as “did not demonstrate the inhibition of P-gp”, the IC50 (CYP2A6) is given as > 100 µM and the IC50 (UGT1A1) is given as > 100 µM.

In the case of CC(C)=CCC[C@](C)(O[C@@H]1O[C@H](CO[C@@H]2O[C@@H](CO)[C@H](O)[C@H]2O)[C@@H](O)[C@H](O)[C@H]1O)[C@H]1CC[C@]2(C)[C@@H]1[C@H](O)C[C@@H]1[C@@]3(C)CC[C@H](O[C@@H]4O[C@H](CO)[C@@H](O)[C@H](O)[C@H]4O[C@@H]4O[C@H](CO)[C@@H](O)[C@H](O)[C@H]4O)C(C)(C)[C@@H]3CC[C@]12C [Compound D3, Ginsenoside Rc], the IC50 (CYP2A6; [7]) is reported as > 100 µM and the IC50 (UGT1A1; [8]) is reported as > 100 µM.

With CC(C)=CCC[C@](C)(O[C@@H]1O[C@H](CO)[C@@H](O)[C@H](O)[C@H]1O)[C@H]1CC[C@]2(C)[C@@H]1[C@H](O)C[C@@H]1[C@@]3(C)CC[C@H](O)C(C)(C)[C@@H]3[C@@H](O[C@@H]3O[C@H](CO)[C@@H](O)[C@H](O)[C@H]3O[C@@H]3O[C@@H](C)[C@H](O)[C@@H](O)[C@H]3O)C[C@]12C [Compound C9, Ginsenoside Re] the IC50 (CYP2A6; [7]) was > 100 µM and the IC50 (UGT1A1; [8]) was > 100 µM.

With CC(C)=CCC[C@](C)(O[C@@H]1O[C@H](CO[C@@H]2O[C@H](CO)[C@@H](O)[C@H](O)[C@H]2O)[C@@H](O)[C@H](O)[C@H]1O)[C@H]1CC[C@]2(C)[C@@H]1[C@H](O)C[C@@H]1[C@@]3(C)CC[C@H](O[C@@H]4O[C@H](CO)[C@@H](O)[C@H](O)[C@H]4O[C@@H]4O[C@H](CO)[C@@H](O)[C@H](O)[C@H]4O)C(C)(C)[C@@H]3CC[C@]12C [Compound D5, Ginsenoside Rb1] the IC50 (CYP2A6; [7]) was > 100 µM and the IC50 (UGT1A1; [8]) was > 100 µM.

In the case of CC(C)(O)[C@@H]1CC[C@](C)([C@H]2[C@@H](O)C[C@@]3(C)[C@@H]4C[C@H](O[C@@H]5O[C@H](CO)[C@@H](O)[C@H](O)[C@H]5O)[C@H]5C(C)(C)[C@@H](O[C@@H]6OC[C@@H](O)[C@H](O)[C@H]6O)CC[C@@]56C[C@@]46CC[C@]23C)O1 [Compound B2, Astragaloside IV], the inhibition activity (P-gp; MDR1-MDCKII cells, 100 μM) is given as 8.22%, the IC50 (CYP2A6; [7]) is given as > 100 µM and the IC50 (UGT1A1; [8]) is given as > 100 µM.

With CC(C)=CCC[C@](C)(O[C@@H]1O[C@H](CO)[C@@H](O)[C@H](O)[C@H]1O)[C@H]1CC[C@]2(C)[C@@H]1[C@H](O)C[C@@H]1[C@@]3(C)CC[C@H](O[C@@H]4O[C@H](CO)[C@@H](O)[C@H](O)[C@H]4O[C@@H]4O[C@H](CO)[C@@H](O)[C@H](O)[C@H]4O)C(C)(C)[C@@H]3CC[C@]12C [Compound D2, Ginsenoside Rd] the IC50 (CYP2A6; [7]) was > 100 µM and the IC50 (UGT1A1; [8]) was > 100 µM.

For CC(C)=CCC[C@](C)(O)[C@H]1CC[C@]2(C)[C@@H]1[C@H](O)C[C@@H]1[C@@]3(C)CC[C@H](O)C(C)(C)[C@@H]3[C@@H](O[C@@H]3O[C@H](CO)[C@@H](O)[C@H](O)[C@H]3O[C@@H]3O[C@H](CO)[C@@H](O)[C@H](O)[C@H]3O)C[C@]12C [Compound C7, Ginsenoside Rf], the IC50 (CYP2A6; [7]) was > 100 µM, the IC50 (UGT1A1; [8]) was > 100 µM and the “changes against these CYP and UGT enzymes” value (CYP and UGT enzymes) was “almost no changes”.

In the case of CC(C)=CCC[C@](C)(O[C@@H]1O[C@H](CO)[C@@H](O)[C@H](O)[C@H]1O)[C@H]1CC[C@]2(C)[C@@H]1[C@H](O)C[C@@H]1[C@@]3(C)CC[C@H](O)C(C)(C)[C@@H]3[C@@H](O[C@@H]3O[C@H](CO)[C@@H](O)[C@H](O)[C@H]3O)C[C@]12C [Compound C6, Ginsenoside Rg1], the IC50 (NTCP) is listed as 50.5 µM, the IC50 (CYP2A6; [7]) is listed as > 100 µM and the “inhibition type (smallest AIC and SC)” value (UGT1A1; UGT1A1) is listed as “competitive inhibition”. For the same compound, the Ki (UGT1A1; UGT1A1, competitive model) was 141 ± 10.5 µM, the Ki (UGT1A1; UGT1A1, mixed-type model) was 147 ± 29.9 µM and the α (UGT1A1; UGT1A1, mixed-type model) was 8.3 ± 37.2. The Ki (UGT1A1; UGT1A1, noncompetitive model) was 187 ± 12.7 µM, the “Cmax/Ki ([I]/Ki)” value (UGT1A1; UGT1A1, selected model, rat plasma Cmax) was 0.01 and the IC50 (UGT1A1; [8]) was 92.2 ± 40 µM. It also gave an IC50 (UGT1A1; β-estradiol 60 μM, read-out: IC50 against UGT1A1) of 92.2 µM.
